Measured values taken from US20220267390A1, “MPS MODIFIED PEPTIDES AND USE THEREOF” (The Regents of the University of California, priority 2019, published 2022).
Where no end group is shown, it is not given here.

Tests used:
[1] = system: lung fibroblasts isolated from bleomycin-treated mice; assay: MTT cell viability of lung fibroblasts from saline- or bleomycin-treated mice; assay type: cell-based; conditions: fibroblasts from bleomycin-treated mice compared to those from saline-treated mice
Experimental: FIGS. 7A-7B: (FIG. 7A) Western blots analysis of phospho-MARCKS, phospho-AKT and α-SMA expression in lung fibroblast cells isolated from saline- or bleomycin-treated mice after 48 hours of treatment with control or MPS peptides (100 μM). (FIG. 7B) Effect of MPS peptide on cell viability of lung fibroblasts isolated from saline- (mFb-Saline) or bleomycin-treated (mFb-Bleomycin) mice (n=4; *, p<0.05).
MPS peptide potentially serves as an antifibrotic agent in bleomycin-induced pulmonary fibrosis. Bleomycin remains the standard agent for induction of experimental pulmonary fibrosis in animals^23. Thus, 8-week-old female C57BL/6J mice received saline or bleomycin intratracheally (33 μg in […] of saline) as previously described^23. Lung specimens from bleomycin- or saline-treated mice were collected and subjected to immunofluorescence staining. […] Next, lung fibroblast cells isolated from saline- or bleomycin-treated mice (two mice fibroblast cell lines were gifts from Dr. Sem H. Phan, University of Michigan School of Medicine, MI) were incubated with either 100 μM control or MPS peptide for 48 hours. […] The feasibility of the MPS peptide as an antifibrotic agent in a bleomycin-induced pulmonary fibrosis was tested. […] Saline- and bleomycin-exposed mice then were treated with either PBS or MPS peptide (28 mg/kg) intraperitoneally every other day. […]

PIP3 = assay: Immunocytochemistry with anti-PIP3 antibodies in IPF lung fibroblast cells; assay type: cell-based, human; conditions: 100 μM, 12 hours
Experimental: Multiple IPF lung fibroblast cells were treated with either PBS or 100 μM of MPS peptide for 12 hours and then subjected to immunocytochemistry using anti-PIP3 antibodies. Representative images are shown (n=3). Scale bar: 20 μm.
MARCKS levels and activity (phospho-MARCKS) were correlated with higher pro-fibrotic activity including cell proliferation, extracellular matrix production, invasiveness, and fibroblast differentiation. Upon treatment with MPS peptides, which target MARCKS activity, Applicant observes attentuation of these activities. The second significant finding was that MARCKS mediates these profibrotic effects through through the PI3K/AKT pathway. […] Targeting of these activities with MPS peptide results in decreased AKT activity and downstream pro-fibrotic signals. The mechanism through which this occurs is through regulation of PIP2 availability at the cell membrane. In an unphosprylated state, MARCKS is able to bind PIP2 at the cell membrane, preventing PI3K proteins from converting PIP2 into PIP3 and effecting downstream AKT activity. Upon phosphorylation, MARCKS is released from the cell membrane into the cytosol, freeing up PIP2 and allowing PI3K to convert PIP2 into PIP3. […] Applicant obtained multiple IPF lung fibroblast cells and treated them with either PBS or 100 μM MPS peptide for 12 hours and subjected to immunocytochemistry utilizing anti-PIP3 antibody.

LG704 oncospheres = assay: RNA-seq of LG704 oncospheres; assay type: cell-based, human; conditions: 50 μM
Experimental: These genes were then analyzed with GSEA to determine which functional pathways were most affected by MARCKS. Right, Heat map of cancer-stemness markers associated with MARCKS activity.
Targeting the MARCKS PSD is associated with inhibition of stem-like cell properties. In light of the importance of the PSD in the functionality of MARCKS protein, Applicant designed a 25-mer MPS peptide to mimic the MARCKS phosphorylation site domain (PSD). […] Applicant's initial studies have shown that elevation of phospho-MARCKS in lung cancer spheres acted in parallel with increased stemness markers, such as CD133, Oct3/4, SOX2 and Nanog (data not included). The oncospheres were derived from high MARCKS-expressing lung cancer cell lines (H1975 and CL1-5) and primary lung cancer cells (LG704 and LC3: pleural effusion cells isolated from patients with advanced stage) in non-adherent serum-free culture conditions as described previously^30-32. Flow cytometry confirmed that ˜80% of LG704 oncosphere cells are CD133-positive, a major lung CSCs marker. […] Through a comparison of transcriptome profiling between PBS- and MPS-treated LG704 oncospheres by RNA-seq, Applicant identified a total of 352 coding genes altered by MARCKS inhibition (FIG. 15, left). […] The sphere-forming ability was assessed by counting the number and size of tumor spheres (oncospheres) under a microscope. […]

[2] = system: oncospheres derived from H292 cells; assay: Sphere-forming assay, smoke-enriched oncospheres derived from H292 cells; assay type: cell-based
Source text: FIG. 18A-18C: (FIG. 18A) Sphere-forming assays for evaluating the inhibitory effect of the MPS peptide on smoke-mediated stemness. (FIG. 18B) Quantification of the number and size of oncospheres. (FIG. 18C) RT-qPCR analyses of mRNA expression in the above oncospheres.
Targeting the MARCKS PSD is associated with inhibition of stem-like cell properties. In light of the importance of the PSD in the functionality of MARCKS protein, Applicant designed a 25-mer MPS peptide to mimic the MARCKS phosphorylation site domain (PSD). […] Applicant's initial studies have shown that elevation of phospho-MARCKS in lung cancer spheres acted in parallel with increased stemness markers, such as CD133, Oct3/4, SOX2 and Nanog (data not included). The oncospheres were derived from high MARCKS-expressing lung cancer cell lines (H1975 and CL1-5) and primary lung cancer cells (LG704 and LC3: pleural effusion cells isolated from patients with advanced stage) in non-adherent serum-free culture conditions as described previously^30-32. Flow cytometry confirmed that ˜80% of LG704 oncosphere cells are CD133-positive, a major lung CSCs marker. […] The sphere-forming ability was assessed by counting the number and size of tumor spheres (oncospheres) under a microscope. […]

[3] = system: normal human epithelial cells; conditions: earlier work of Applicant (refs 14, 16); cited from earlier work

## KKKKKRFSFKKSFKLSGFSFKKNKK [MPS peptide]
[1]
  Cell viability: very effective in decreasing cell viability
PIP3
  PIP3 levels: reduced
LG704 oncospheres
  cancer stemness genes (ABCC8, CDH5, PROM1 (CD133), ALDH1L1, FGFR2): decreased
[2]
  number and size of oncospheres: inhibitory effects
[2]; RT-qPCR
  expression of stemness genes: inhibitory effects
[3]
  cytotoxic effect on normal human epithelial cells: no cytotoxic effect
